Test results as given in ChEMBL document CHEMBL4699440, “Comprehensive review on the anti-bacterial activity of 1,2,3-triazole hybrids” (Eur J Med Chem, 2019).
≈ marks a conversion by molar mass, not a printed value.

Columns and labels:
Enterococcus faecalis [1] = test: Antibacterial activity against Enterococcus faecalis MTCC 439 incubated overnight by broth dilution technique; type: functional, organism-based
Escherichia coli [2] = test: Antibacterial activity against Escherichia coli ATCC 25922 incubated overnight by broth dilution technique; type: functional, organism-based
Salmonella enterica = test: Antibacterial activity against Salmonella enterica MTCC 3224 incubated overnight by broth dilution technique; type: functional, organism-based
Pseudomonas aeruginosa = test: Antibacterial activity against Pseudomonas aeruginosa MTCC 2453 incubated overnight by broth dilution technique; type: functional, organism-based
Streptococcus pneumoniae = test: Antibacterial activity against Streptococcus pneumoniae MTCC 655 incubated overnight by broth dilution technique; type: functional, organism-based
Klebsiella pneumoniae = test: Antibacterial activity against Klebsiella pneumoniae ATCC 700603 incubated overnight by broth dilution technique; type: functional, organism-based
Candida albicans [3] = test: Antibacterial activity against Candida albicans MTCC 227 by serial dilution method; type: functional
Aspergillus niger [4] = test: Antibacterial activity against Aspergillus niger ATCC 9029 incubated for 24 hrs by broth microdilution method; type: functional
Candida albicans [5] = test: Antifungal activity against Candida albicans MTCC 227 incubated for 2 days by microdilution method; type: functional; conditions: MTCC 227, 48 h, time 2 day
Candida albicans [6] = test: Antifungal activity against Candida albicans ATCC 50193 incubated for 24 hrs by microdilution method; type: functional
Aspergillus brasiliensis [7] = test: Antifungal activity against Aspergillus brasiliensis ATCC 16404 incubated for 24 hrs by microdilution method; type: functional
Aspergillus brasiliensis [8] = test: Antifungal activity against Aspergillus brasiliensis MTCC 1344 incubated for 7 days by microdilution method; type: functional; conditions: MTCC 1344, 168 h, time 7 day
Candida albicans [9] = test: Antifungal activity against Candida albicans ATCC 2091 incubated for 24 hrs by broth microdilution method; type: functional
Aspergillus niger [10] = test: Antibacterial activity against Aspergillus niger MTCC 8189 by serial dilution method; type: functional
Escherichia coli [11] = test: Antibacterial activity against Escherichia coli JM109 after overnight incubation by CLSI M7-A9 based method; type: functional
Enterococcus faecalis [12] = test: Antibacterial activity against Enterococcus faecalis ATCC 29212 after overnight incubation by CLSI M7-A9 based method; type: functional
Staphylococcus aureus [13] = test: Antibacterial activity against Staphylococcus aureus CIP 6525 after overnight incubation by CLSI M7-A9 based method; type: functional
Escherichia coli [14] = test: Antibacterial activity against Escherichia coli ATCC 25922 after overnight incubation by CLSI M7-A9 based method; type: functional
Bacillus spizizenii = test: Antibacterial activity against Bacillus subtilis ATCC 6633 incubated for 24 hrs by broth dilution method; type: functional
Escherichia coli [15] = test: Antibacterial activity against Escherichia coli ATCC 25922 incubated for 24 hrs by broth dilution method; type: functional
Proteus vulgaris = test: Antibacterial activity against Proteus vulgaris ATCC […] incubated for 24 hrs by broth dilution method; type: functional
Staphylococcus aureus [16] = test: Antibacterial activity against Staphylococcus aureus ATCC 9144 incubated for 24 hrs by broth dilution method; type: functional

In the case of `Oc1cccc2cccnc12` [OXYQUINOLINE], the IC50 (Enterococcus faecalis [1]) is reported as 15.6 µg/mL (≈ 108 µM), the IC50 (Escherichia coli [2]) is reported as 15.6 µg/mL (≈ 108 µM) and the IC50 (Salmonella enterica) is reported as 15.6 µg/mL (≈ 108 µM). For the same molecule, the IC50 (Pseudomonas aeruginosa) was 15.6 µg/mL (≈ 108 µM), the IC50 (Streptococcus pneumoniae) was 15.6 µg/mL (≈ 108 µM) and the IC50 (Klebsiella pneumoniae) was 15.6 µg/mL (≈ 108 µM).

`O=[N+]([O-])c1ccc(-n2cc(COc3cccc4cccnc34)nn2)cc1` gave an IC50 (Enterococcus faecalis [1]) of 106 µg/mL (≈ 305 µM), an IC50 (Escherichia coli [2]) of 106 µg/mL (≈ 305 µM) and an IC50 (Salmonella enterica) of 106 µg/mL (≈ 305 µM). For the same molecule, the IC50 (Pseudomonas aeruginosa) was 106 µg/mL (≈ 305 µM), the IC50 (Streptococcus pneumoniae) was 106 µg/mL (≈ 305 µM) and the IC50 (Klebsiella pneumoniae) was 106 µg/mL (≈ 305 µM).

In the case of `OC(Cn1cncn1)(Cn1cncn1)c1ccc(F)cc1F` [FLUCONAZOLE], the MIC (Candida albicans [3]) is reported as 5.1 µM (≈ 1.56 µg/mL), the MIC (Aspergillus niger [4]) is reported as 8 µg/mL (≈ 26.1 µM) and the MIC (Candida albicans [5]) is reported as 0.0408 µM (≈ 0.0125 µg/mL). For the same molecule, the MIC (Candida albicans [6]) was 1 µg/mL (≈ 3.27 µM), the MIC (Aspergillus brasiliensis [7]) was 4 µg/mL (≈ 13.1 µM) and the MIC (Aspergillus brasiliensis [8]) was 0.0716 µM (≈ 0.0219 µg/mL). For the same molecule, the MIC (Candida albicans [9]) was 8 µg/mL (≈ 26.1 µM) and the MIC (Aspergillus niger [10]) was 5.1 µM (≈ 1.56 µg/mL).

For `C[C@H](c1ccccc1)N(CC(N)=O)C(=O)CN(C(=O)CN(Cc1cn(CC2CCCCC2)n[n+]1C)C(=O)CN(C(=O)CN(C(=O)CN(Cc1cn(CC2CCCCC2)n[n+]1C)C(=O)CN(C(=O)CN(C(=O)CNCc1cn(CC2CCCCC2)n[n+]1C)[C@H](C)c1ccccc1)[C@H](C)c1ccccc1)[C@H](C)c1ccccc1)[C@H](C)c1ccccc1)[C@H](C)c1ccccc1`, the MIC (Escherichia coli [11]) was > 1.6 µg/mL, the MIC (Enterococcus faecalis [12]) was > 1.6 µg/mL and the MIC (Staphylococcus aureus [13]) was > 1.6 µg/mL. The MIC (Escherichia coli [14]) was > 1.6 µg/mL.

For `Fc1ccc(-n2cc(COc3cccc4cccnc34)nn2)cc1`, the IC50 (Enterococcus faecalis [1]) was 106 µg/mL (≈ 331 µM), the IC50 (Escherichia coli [2]) was 106 µg/mL (≈ 331 µM) and the IC50 (Salmonella enterica) was 106 µg/mL (≈ 331 µM). The IC50 (Pseudomonas aeruginosa) was 106 µg/mL (≈ 331 µM), the IC50 (Streptococcus pneumoniae) was 106 µg/mL (≈ 331 µM) and the IC50 (Klebsiella pneumoniae) was 106 µg/mL (≈ 331 µM).

In the case of `C[C@H](c1ccccc1)N(CC(N)=O)C(=O)CN(C(=O)CN(Cc1cn(CC2CCCCC2)n[n+]1C)C(=O)CN(C(=O)CN(C(=O)CNCc1cn(CC2CCCCC2)n[n+]1C)[C@H](C)c1ccccc1)[C@H](C)c1ccccc1)[C@H](C)c1ccccc1`, the MIC (Escherichia coli [11]) is reported as > 1.6 µg/mL, the MIC (Enterococcus faecalis [12]) is reported as > 1.6 µg/mL and the MIC (Staphylococcus aureus [13]) is reported as > 1.6 µg/mL. For the same molecule, the MIC (Escherichia coli [14]) was > 1.6 µg/mL.

`C[C@H](c1ccccc1)N(CC(N)=O)C(=O)CN(C(=O)CN(Cc1cn(CCN)n[n+]1C)C(=O)CN(C(=O)CN(C(=O)CNCc1cn(CCN)n[n+]1C)[C@H](C)c1ccccc1)[C@H](C)c1ccccc1)[C@H](C)c1ccccc1` was tested, and the MIC (Escherichia coli [11]) was > 1.6 µg/mL, the MIC (Enterococcus faecalis [12]) was > 1.6 µg/mL and the MIC (Staphylococcus aureus [13]) was > 1.6 µg/mL. The MIC (Escherichia coli [14]) was > 1.6 µg/mL.

With `C[C@H](c1ccccc1)N(CC(N)=O)C(=O)CN(C(=O)CN(Cc1cn(Cc2ccccc2)n[n+]1C)C(=O)CN(C(=O)CN(C(=O)CN(Cc1cn(Cc2ccccc2)n[n+]1C)C(=O)CN(C(=O)CN(C(=O)CNCc1cn(Cc2ccccc2)n[n+]1C)[C@H](C)c1ccccc1)[C@H](C)c1ccccc1)[C@H](C)c1ccccc1)[C@H](C)c1ccccc1)[C@H](C)c1ccccc1` the MIC (Escherichia coli [11]) was > 1.6 µg/mL, the MIC (Enterococcus faecalis [12]) was > 1.6 µg/mL and the MIC (Staphylococcus aureus [13]) was > 1.6 µg/mL. The MIC (Escherichia coli [14]) was > 1.6 µg/mL.

With `O=C(/C=C1\C(=O)N(Cc2cn(Cc3ccccc3)nn2)c2ccccc21)c1cc(Cl)cc(Cl)c1OCc1cn(Cc2ccccc2)nn1` the MIC (Bacillus spizizenii) was 1.56 µg/mL (≈ 2.31 µM), the MIC (Escherichia coli [15]) was 1.56 µg/mL (≈ 2.31 µM) and the MIC (Proteus vulgaris) was 1.56 µg/mL (≈ 2.31 µM). For the same molecule, the MIC (Staphylococcus aureus [16]) was 1.56 µg/mL (≈ 2.31 µM).

`C[C@H](c1ccccc1)N(CC(N)=O)C(=O)CN(C(=O)CN(Cc1cn(CCN)n[n+]1C)C(=O)CN(C(=O)CN(C(=O)CN(Cc1cn(CCN)n[n+]1C)C(=O)CN(C(=O)CN(C(=O)CN(Cc1cn(CCN)n[n+]1C)C(=O)CN(C(=O)CN(C(=O)CNCc1cn(CCN)n[n+]1C)[C@H](C)c1ccccc1)[C@H](C)c1ccccc1)[C@H](C)c1ccccc1)[C@H](C)c1ccccc1)[C@H](C)c1ccccc1)[C@H](C)c1ccccc1)[C@H](C)c1ccccc1` was tested, and the MIC (Escherichia coli [11]) was > 1.6 µg/mL, the MIC (Enterococcus faecalis [12]) was > 1.6 µg/mL and the MIC (Staphylococcus aureus [13]) was > 1.6 µg/mL. The MIC (Escherichia coli [14]) was > 1.6 µg/mL.

For `C[C@H](c1ccccc1)N(CC(N)=O)C(=O)CN(C(=O)CN(Cc1cn(CC2CCCCC2)nn1)C(=O)CN(C(=O)CN(C(=O)CNCc1cn(CC2CCCCC2)nn1)[C@H](C)c1ccccc1)[C@H](C)c1ccccc1)[C@H](C)c1ccccc1`, the MIC (Escherichia coli [11]) was > 1.6 µg/mL, the MIC (Enterococcus faecalis [12]) was > 1.6 µg/mL and the MIC (Staphylococcus aureus [13]) was > 1.6 µg/mL. For the same molecule, the MIC (Escherichia coli [14]) was > 1.6 µg/mL.

With `Cc1ccc(-n2cc(COc3cccc4cccnc34)nn2)cc1` the IC50 (Enterococcus faecalis [1]) was 113 µg/mL (≈ 356 µM), the IC50 (Escherichia coli [2]) was 113 µg/mL (≈ 356 µM) and the IC50 (Salmonella enterica) was 113 µg/mL (≈ 356 µM). For the same molecule, the IC50 (Pseudomonas aeruginosa) was 113 µg/mL (≈ 356 µM), the IC50 (Streptococcus pneumoniae) was 113 µg/mL (≈ 356 µM) and the IC50 (Klebsiella pneumoniae) was 113 µg/mL (≈ 356 µM).
